Results as given in patent US10323254B2, “Method for regulating plant growth” (RIKEN, priority 2015, dated 2019).

Assays:
[1] = test system: BR-responsive genes (TCH4, BAS1, IAA19, and SAUR-AC1); experiment: qRT-PCR of BR-responsive gene expression in seedlings; type: in vivo, Arabidopsis thaliana; details: wild-type (WT) plants; 7-day-old dark-germinated seedlings; 3 μM Brz or 100 nM BL for 3 hours
Experimental: The expression level of TCH, BAS1, IAA19, and SAUR-AC1 were analyzed by qRT-PCR in 7-day-old dark-germinated seedlings and treated with medium containing DMSO (Mock), 3 μM Brz (+Brz), or 100 nM BL (+BL) for 3 hours. The data represent the mean±s.d. of 4 independent experiments (**P<0.01, Student's t-test). […] Ten-day-old seedlings grown on medium with Brz were treated with 100 nM BL or mock solution for 3 hours. Total proteins were extracted and analyzed by immunoblotting with an anti-BIL1 antibody. […] The signal intensities of phosphorylated BIL1 (above) and dephosphorylated BIL1 (below) are shown by arrowhead, and each band signal is counted as a percentage relative to the level of phosphorylated BIL1 in WT seedlings.
Total RNA was extracted from plants using an RNeasy Plant Mini Kit (QIAGEN).
The first-strand cDNA was synthesized using PrimeScript (Takara) and was used in qRT-PCR. The qRT-PCR was performed according to the instructions provided for the Thermal Cycler Dice (Takara) using the SYBR Premix ExTaq system (Takara). […]

BSS1 = experiment: qRT-PCR of BSS1 expression in wild-type seedlings; type: in vivo, Arabidopsis thaliana; details: WT seedlings on medium with different concentrations of Brz or BL, 7 days; dose-dependent
Experimental: The data represent the mean±s.d. from 4 independent experiments. […] The samples were grown in the same conditions as FIG. 4A for 3 days (scale bar: 5 mm). FIGS. 4C to 4E show the results of determining the BSS1 expression level by qRT-PCR. Wild-type (WT) seedlings grown on medium with different concentrations of Brz (FIG. 4C) and BL (FIG. 4D) in the light for 7 days and dark-grown seedlings exposed to light for 0-7 days (Figure E) were used for analysis of the BSS1 expression level. The data represent the mean±s.d. of 4 independent experiments.
Approximately 10,000 RIKEN GSC Arabidopsis activation-tagging lines (Nakazawa et al., 2003, Activation tagging, a novel tool to dissect the functions of a gene family. Plant J. 34: 741-750) were screened on ½ MS medium containing 3 μM Brz (Asami et al., 2000, Characterization of brassinazole, a triazole-type brassinosteroid biosynthesis inhibitor, Plant Physiol. 123: 93-100). After growth for 7 days in the dark, seedlings with shorter hypocotyls than those of the controls were identified and transferred to soil. […] First-strand cDNA was synthesized with PrimeScript (Takara) and used in quantitative real-time PCR (qRT-PCR). […]

BSS1-GFP = experiment: Fluorescence microscopy of punctate BSS1-GFP in transgenic seedlings; type: in vivo, Arabidopsis thaliana; details: versus control conditions; for number of punctate BSS1-GFP: seedlings grown on medium with 3 μM Brz or 100 nM BL
[2] = test system: nEYFP-BSS1 and BIL1-cEYFP; experiment: BiFC analysis of the BSS1-BIL1 interaction in protoplast cells; type: cell-based, Arabidopsis; details: protoplasts
Experimental: BIL1 was fused with the binding-domain (BD) and BSS1 was fused with the prey domain (AD). Empty vector (E) was used as a control. The results are presented as the mean±s.d. from 3 independent experiments. […] FLAG-BIL1 was immunoprecipitated using an anti-FLAG antibody and immunoblotted using anti-GFP and anti-FLAG antibodies. […] The protoplast medium contained DMSO, 100 nM BL, or 3 μM Brz and cells were cultured for 12 hours. The bottom panels show protoplasts cotransfected with nYFP-BSS1 and BSS1-cEYFP (YFP: YFP fluorescence; BF: bright field; Merge: merged image of YFP and BF; arrow: nucleus; scale bar: 5 μm). […]
To analyze the direct interaction between BSS1 and BIL1 in the plant cell and to identify the localization of the possible interaction between the two proteins, a bi-molecular fluorescence complementation (BiFC) analysis was performed. […] The YFP fluorescence signal caused by the binding of nYFP-BSS1 and BIL1-cYFP was only observed in the cytosol and not in the nucleus of the Arabidopsis protoplasts (FIG. 7E). […]

| SMILES | expression of TCH4, BAS1, IAA19, and SAUR-AC1 [1] | BSS1 expression (BSS1) | diffused BSS1-GFP signal in the cytosol (BSS1-GFP; seedlings grown on medium containing Brz) | number of punctate BSS1-GFP (BSS1-GFP) | punctate YFP signal (nYFP-BSS1 / BIL1-cYFP) ([2]; 3 μM Brz for 12 hours) | localization of YFP signal (nYFP-BSS1 / BIL1-cYFP) ([2]; 100 nM BL for 12 hours) |
| --- | --- | --- | --- | --- | --- | --- |
| CC(O)(c1ccccc1)C(Cc1ccc(Cl)cc1)n1cncn1 (stereo not drawn) [Brz, brassinazole] | suppressed | increased | reduced | increased in number | increased | – |
| CC(C)[C@H](C)[C@@H](O)[C@H](O)[C@@H](C)[C@H]1CC[C@H]2[C@@H]3COC(=O)[C@H]4C[C@H](O)[C@H](O)C[C@]4(C)[C@H]3CC[C@]12C [BL, brassinolide] | increased | decreased | – | decreased in number | – | diffuse and spread throughout the cytosol and the nucleus |
